Reference: patent publication US4585755A, “Cyclic and bridged cyclic somatostatin analogs useful as local anti-inflammatory agents” (Merck & Co., Inc., priority 1985, dated 1986)
Residues, ends and D or L forms follow the SMILES beside them.

Key:
[1] = system: growth hormone, insulin and glucogen secretion; experiment: Potency relative to somatostatin (SRIF), based on inhibition of hormone secretion; details: somatostatin (SRIF) potency assigned a value of 1, based upon inhibition of growth hormone
Experimental: Following the same procedure as described above for Assay 1, additional compounds were tested for local; i.e., topical, anti-inflammatory activity. […] In Table III, the potency of each compound tested relative to that of somatostatin is also shown, the somatostatin (SRIF) potency being assigned a value of 1 and based upon its inhibition of growth hormone, insulin and glucogen secretion.

[2] = system: cellular proliferation (granuloma); experiment: Assay 1: pellet granuloma assay, compound applied locally to implanted pellets; type: in vivo, rats (Charles River-CD); details: for Body Wt. Change / Net weight of Pellets: local on pellet, male rats, 7 days; for Net weight of Pellets: ± S.E. of mean, control 39 ± 2.7
Experimental: The assay method employed to test the Formula I, II and III compounds as local anti-inflammatory agents is a modification of the method described by S. L. Steelman, et al. [Steroids, 1, 163 (1963)] as follows:
(§1) Male rats (Charles River-CD) of about 150-160 grams in weight were subcutaneously implanted in the abdominal area with two pellets each. Five animals were used per group. The pellets used were preweighed and all used in a given assay were ±1 mg from one another. The compounds were dissolved in absolute ethanol and the indicated dose applied to each pellet in 0.2 ml. The alcohol was removed in vacuo overnight. Just prior to implantation, each pellet was moistened with 0.2 ml of 0.9% saline containing 1 mg each of penicillin and streptomycin. After seven days, the pellets were dissected out together with adhering granulomatous tissue. After drying in a vacuum oven overnight at 60°-65° C., the pellets were weighed. The difference in weight between the original pellet weight and the implanted pellet weight was used as a measure of cellular proliferation (granuloma). The lower the net weight, the more anti-inflammatory activity.
The results obtained following the Assay Method described above are shown below in Table I wherein hydrocortisone was used as a positive control.

[3] = system: cellular proliferation (granuloma); experiment: Assay 2: pellet granuloma assay, compounds administered subcutaneously as saline injections; type: in vivo, rats (Charles River-CD); details: for Avg. Granuloma wt. / Avg. Adrenal wt. / Avg. Thymus wt. / Avg. body wt change: rats, 7 days, ± S.E. of mean; for Avg. Granuloma wt.: control 28 ± 3; for Avg. Adrenal wt.: control 44 ± 1; for Avg. Thymus wt.: control 552 ± 45; for Avg. body wt change: control +35 ± 2
Experimental: as §1
Following the procedure described above for Assay 1, additional tests were conducted except that the compounds were administered subcutaneously as saline injections. The tests were carried out on six animals per group and the results obtained are shown below in Table II.

[4] = daily dose 200 mcg subcutaneous

With `C[C@@H]1NC(=O)[C@H](CO)NC(=O)[C@H](CCCCN)NC(=O)[C@@H](Cc2c[nH]c3ccccc23)NC(=O)[C@H](Cc2c[nH]cn2)NC(=O)[C@H](Cc2ccccc2)N(C)C1=O` [11/I, Cyclo-(Ser-Ala-N-Me-Phe-His-D-Trp-Lys)] (HELM PEPTIDE1{A.[meF].H.[dW].K.S}$PEPTIDE1,PEPTIDE1,1:R1-6:R2$$$V2.0) as the compound, how does the “Potency Relative to Samatostatin (SRIF)” value [1] read?
The value was 200.

With `CC(C)[C@@H]1NC(=O)[C@H](CCCCN)NC(=O)[C@@H](Cc2c[nH]c3ccccc23)NC(=O)[C@H](Cc2ccc(O)cc2)NC(=O)[C@H](C)N(C)C(=O)[C@H](Cc2c[nH]c3ccccc23)NC1=O` [9/I, Cyclo-(N-Me-Ala-Tyr-D-Trp-Lys-Val-Trp)] (HELM PEPTIDE1{K.V.W.[meA].Y.[dW]}$PEPTIDE1,PEPTIDE1,1:R1-6:R2$$$V2.0) as the compound, how does the “Potency Relative to Samatostatin (SRIF)” value [1] read?
The value was 20-35.

Which “Potency Relative to Samatostatin (SRIF)” value [1] does the source give for `C[C@@H](O)[C@@H]1NC(=O)[C@H](CCCCN)NC(=O)[C@@H](Cc2c[nH]c3ccccc23)NC(=O)[C@H](Cc2ccccc2)NC(=O)[C@@H]2CCCN2C(=O)[C@H](Cc2ccccc2)NC1=O` [13/II, Cyclo-(Pro-Phe-D-Trp-Lys-Thr-Phe)] (HELM PEPTIDE1{P.F.[dW].K.T.F}$PEPTIDE1,PEPTIDE1,1:R1-6:R2$$$V2.0) here?
Its value is 6.

For `CC(C)[C@@H]1NC(=O)[C@H](CCCCN)NC(=O)[C@@H](Cc2c[nH]c3ccccc23)NC(=O)[C@H](Cc2ccc(O)cc2)NC(=O)[C@H](C)N(C)C(=O)[C@H](Cc2ccccc2)NC1=O` [Compound 8 of Formula I, Cyclo-(N-Me-Ala-Tyr-D-Trp-Lys-Val-Phe)], which “Potency Relative to Samatostatin (SRIF)” value [1] is on record?
Its value is 50-100.

And the “Body Wt. Change” value ([2]; 10 mcg./pellet)?
Its value is “+43 gm”.

And the “Net weight of Pellets” value ([2]; 10 mcg./pellet)?
Its value is 39 ± 2.9 mg.

And the “Body Wt. Change” value ([2]; 100 mcg./pellet)?
The value was “+40 gm”.

What about the “Net weight of Pellets” value ([2]; 100 mcg./pellet) of the same compound?
The value was 30 ± 2.4 mg.

And the “anti-inflammatory activity (in words)” value ([2]; administered locally, i.e., topically)?
Its value is “clearly exhibits anti-inflammatory activity”.

And the “local anti-inflammatory activity (in words)” value ([2]; doses of 100-200 micrograms per pellet)?
Its value is “significant activity”.

And the “effect on adrenal weight (in words)” value ([3]; administered subcutaneously)?
Its value is “slight decrease in the adrenal weight”.

And the “anti-inflammatory activity (in words)” value ([3]; administered subcutaneously at a total dose of 1.4 mg (0.2 mg×7))?
Its value is “no anti-inflammatory activity”.

What about the “anti-inflammatory activity (in words)” value ([3]; administered systematically, i.e., subcutaneously) of the same compound?
Its value is “no anti-inflammatory activity”.

And the “Avg. Granuloma wt.” value ([3]; daily dose 50 mcg subcutaneous)?
Its value is 27 ± 3 mg.

And the “Avg. Adrenal wt.” value ([3]; daily dose 50 mcg subcutaneous)?
The value was 43 ± 2 mg.

What about the “Avg. Thymus wt.” value ([3]; daily dose 50 mcg subcutaneous) of the same compound?
The value was 576 ± 14 mg.

And the “Avg. body wt change” value ([3]; daily dose 50 mcg subcutaneous)?
Its value is “+38 ± 3 gm”.

And the “Avg. Granuloma wt.” value [3, 4]?
The value was 29 ± 2 mg.

What about the “Avg. Adrenal wt.” value [3, 4] of the same compound?
The value was 36 ± 2 mg.

And the “Avg. Thymus wt.” value [3, 4]?
The value was 571 ± 26 mg.

And the “Avg. body wt change” value [3, 4]?
The value was “+35 ± 2 gm”.

For `CC(C)[C@@H]1NC(=O)[C@H](CCCCN)NC(=O)[C@H](Cc2c[nH]c3ccccc23)NC(=O)[C@H](Cc2ccc(O)cc2)NC(=O)[C@H](C)N(C)C(=O)[C@H](Cc2ccccc2)NC1=O` [10/I, Cyclo-(N-Me-Ala-Tyr-L-Trp-Lys-Val-Phe)], which “Potency Relative to Samatostatin (SRIF)” value [1] is on record?
Its value is 50.

Which results are given for `C[C@]12CCC(=O)C=C1CC[C@@H]1[C@@H]2[C@@H](O)C[C@@]2(C)[C@H]1CC[C@]2(O)C(=O)CO` [Hydrocortisone, reference compound]?
Body Wt. Change ([2]; 200 mcg./pellet): +44 gm; Net weight of Pellets ([2]; 200 mcg./pellet): 34 ± 2.5 mg; Body Wt. Change ([2]; 1000 mcg./pellet): +41 gm; Net weight of Pellets ([2]; 1000 mcg./pellet): 29 ± 2.1 mg; activity of positive control (in words) ([3]; administered subcutaneously): typical activity; Avg. Granuloma wt. ([3]; daily dose 1.0 mg subcutaneous): 22 ± 1 mg; Avg. Adrenal wt. ([3]; daily dose 1.0 mg subcutaneous): 36 ± 3 mg; Avg. Thymus wt. ([3]; daily dose 1.0 mg subcutaneous): 201 ± 20 mg; Avg. body wt change ([3]; daily dose 1.0 mg subcutaneous): +22 ± 3 gm; Avg. Granuloma wt. ([3]; daily dose 4.0 mg subcutaneous): 19 ± 1 mg; Avg. Adrenal wt. ([3]; daily dose 4.0 mg subcutaneous): 23 ± 1 mg; Avg. Thymus wt. ([3]; daily dose 4.0 mg subcutaneous): 41 ± 3 mg; Avg. body wt change ([3]; daily dose 4.0 mg subcutaneous): -17 ± 2 gm
